Data taken from US9388139B2, “Derivatives of celeboxib, use thereof and preparation thereof” (German University, priority 2011, dated 2016).
pIC50: −log10 of the molar value.

Key:
COX2 = COX2 (Ovis aries (Sheep), UniProt P79208); assay: COX-2 activity, colorimetric assay; format: biochemical, ovine; details: screening dose 100 μM; read-out: IC50 μM against COX2
Experimental: (§1) Compounds according to the present disclosure were tested for their in vitro ability to inhibit recombinant human PDE5, COX1 and COX2 enzymes at screening doses of 50, 100 and 100 μM respectively.
COX-1 and COX-2 activities were measured using purified ovine COX-1 and COX-2 with colorimetric assay kits obtained from Cayman Chemical Co. (Ann Arbor, Mich.). The activities of COX-1 and COX-2 were measured after the addition of arachidonic acid and incubation at 25° C. for 5 min by absorbance at 590 nm as specified by the manufacturer.

MDA-MB-231 = assay: Tumor cell growth inhibition panel; format: cell-based; details: Homo sapiens, Breast
Experimental: (§2) Thus, compound 12 is able to show broad spectrum tumor cell growth inhibitory activity independent of cyclooxygenase inhibition, whereas PDE5 may be the major contributor to such activity.
(§3) The human tumor cell lines were purchased from the American Type Culture Collection (Mansassas, Va.) and maintained in RPMI-1640+2.0 g/L glucose pH 7.4+5% FBS+4 mM glutamine (complete growth medium), incubated at 37° C. in 5% CO2, and passaged at subconfluent density. The human fetal colon FHC cells were cultured in DMEM:F12 medium supplemented with 10% FBS, cholera toxin (10 ng/mL), 5 μg/ml transferrin, 5 μg/ml insulin, and 100 ng/ml hydrocortisone. The passage number was routinely limited to approximately 20 and morphology monitored with each passage, but no additional authentication of the cell lines was performed.
(§4) Cells were plated in 96-well microtiter plates at a density of 5,000 cells per well and allowed to adhere overnight prior to treatment. Cells were treated with a 2-log concentration range of either SS or SBA and incubated for an additional 72 hours. For siRNA assays, cells were transfected in OptiMEM media with 0.5% SureFECT transfection reagent and 200 nmol/L of either negative control or PDE5 siRNA and incubated at 37° C. for 24 h prior to treatment. At the end of the incubation period, relative cell viability was compared to vehicle controls using the Cell Titer Glo Assay (Promega, Madison Wis.), which measures viable cells based on ATP content, according to the manufacturer's specifications.

PC-3 = assay: Tumor cell growth inhibition panel; format: cell-based; details: Homo sapiens, Prostate
Experimental: as §2, §3, §4

HCT-116 = assay: Tumor cell growth inhibition panel; format: cell-based; details: Homo sapiens, Colon
Experimental: as §2, §3, §4

SF-268 = assay: Tumor cell growth inhibition panel; format: cell-based; details: Homo sapiens, CNS
Experimental: as §2, §3, §4

SF-539 = assay: Tumor cell growth inhibition panel; format: cell-based; details: Homo sapiens, CNS
Experimental: as §2, §3, §4

HOP-62 = assay: Tumor cell growth inhibition panel; format: cell-based; details: Homo sapiens, Lung
Experimental: as §2, §3, §4

UACC-257 = assay: Tumor cell growth inhibition panel; format: cell-based; details: Homo sapiens, Melanoma
Experimental: as §2, §3, §4

NCI-H322M = assay: Tumor cell growth inhibition panel; format: cell-based; details: Homo sapiens, Lung
Experimental: as §2, §3, §4

OVCAR-4 = assay: Tumor cell growth inhibition panel; format: cell-based; details: Homo sapiens, Ovarian
Experimental: as §2, §3, §4

OVCAR-5 = assay: Tumor cell growth inhibition panel; format: cell-based; details: Homo sapiens, Ovarian
Experimental: as §2, §3, §4

SNB-19 = assay: Tumor cell growth inhibition panel; format: cell-based; details: Homo sapiens, CNS
Experimental: as §2, §3, §4

MALME-3M = assay: Tumor cell growth inhibition panel; format: cell-based; details: Homo sapiens, Melanoma
Experimental: as §2, §3, §4

SW-620 = assay: Tumor cell growth inhibition panel; format: cell-based; details: Homo sapiens, Colon
Experimental: as §2, §3, §4

A498 = assay: Tumor cell growth inhibition panel; format: cell-based; details: Homo sapiens, Renal
Experimental: as §2, §3, §4

TK-10 = assay: Tumor cell growth inhibition panel; format: cell-based; details: Homo sapiens, Renal
Experimental: as §2, §3, §4

786-0 = assay: Tumor cell growth inhibition panel; format: cell-based; details: Homo sapiens, Renal
Experimental: as §2, §3, §4

UO-31 = assay: Tumor cell growth inhibition panel; format: cell-based; details: Homo sapiens, Renal
Experimental: as §2, §3, §4

recombinant human PDE5 = recombinant human PDE5 (Homo sapiens (Human), UniProt O76074); assay: PDE5 inhibition, IMAP fluorescence polarization assay; format: biochemical; details: recombinant human PDE5; IC50 determined if inhibition >50% at 50 μM screening dose; read-out: IC50 μM against PDE5
Experimental: as §1
(§5) PDE activity was measured using the IMAP fluorescence polarization assay (Molecular Devices) in which binding of hydrolyzed cyclic nucleotide substrate to immobilized metal coordination complexes increases fluorescence polarization (FP). Tetramethylrhodamine (TAMRA)-cGMP and fluorescein-cAMP were used as substrates, each at final concentration of 50 nmol/L. The PDE assay was done according to the manufacturer's specifications using either whole cell lysates or recombinant enzymes.

PDE9A = PDE9A (Homo sapiens (Human), UniProt O76083); assay: PDE isozyme selectivity, IMAP assay; format: biochemical; details: substrate cGMP
Experimental: as §5, with “enzymes. FP was measured at excitation, emission wavelengths of either 530,590 nm for TAMRA-cGMP or 485,530 nm for fluorescein-cAMP using a Synergy4 (Biotek) microplate reader.” for “enzymes.”

PDE3B = PDE3B (Homo sapiens (Human), UniProt Q13370); assay: PDE isozyme selectivity, IMAP assay; format: biochemical
Experimental: as §5, with “enzymes. FP was measured at excitation, emission wavelengths of either 530,590 nm for TAMRA-cGMP or 485,530 nm for fluorescein-cAMP using a Synergy4 (Biotek) microplate reader.” for “enzymes.”

PDE5A = PDE5A (Homo sapiens (Human), UniProt O76074); assay: PDE isozyme selectivity, IMAP assay; format: biochemical
Experimental: as §5, with “enzymes. FP was measured at excitation, emission wavelengths of either 530,590 nm for TAMRA-cGMP or 485,530 nm for fluorescein-cAMP using a Synergy4 (Biotek) microplate reader.” for “enzymes.”

PDE10 = PDE10 (Homo sapiens (Human), UniProt Q9Y233); assay: PDE isozyme selectivity, IMAP assay; format: biochemical
Experimental: as §5, with “enzymes. FP was measured at excitation, emission wavelengths of either 530,590 nm for TAMRA-cGMP or 485,530 nm for fluorescein-cAMP using a Synergy4 (Biotek) microplate reader.” for “enzymes.”

PDE1A = PDE1A (Homo sapiens (Human), UniProt P54750); assay: PDE isozyme selectivity, IMAP assay; format: biochemical
Experimental: as §5, with “enzymes. FP was measured at excitation, emission wavelengths of either 530,590 nm for TAMRA-cGMP or 485,530 nm for fluorescein-cAMP using a Synergy4 (Biotek) microplate reader.” for “enzymes.”

PDE3A = PDE3A (Homo sapiens (Human), UniProt Q14432); assay: PDE isozyme selectivity, IMAP assay; format: biochemical
Experimental: as §5, with “enzymes. FP was measured at excitation, emission wavelengths of either 530,590 nm for TAMRA-cGMP or 485,530 nm for fluorescein-cAMP using a Synergy4 (Biotek) microplate reader.” for “enzymes.”

PDE11 = PDE11 (Homo sapiens (Human), UniProt Q9HCR9); assay: PDE isozyme selectivity, IMAP assay; format: biochemical
Experimental: as §5, with “enzymes. FP was measured at excitation, emission wavelengths of either 530,590 nm for TAMRA-cGMP or 485,530 nm for fluorescein-cAMP using a Synergy4 (Biotek) microplate reader.” for “enzymes.”

Sequence of PDE3B (Q13370 whole entry, species assumed): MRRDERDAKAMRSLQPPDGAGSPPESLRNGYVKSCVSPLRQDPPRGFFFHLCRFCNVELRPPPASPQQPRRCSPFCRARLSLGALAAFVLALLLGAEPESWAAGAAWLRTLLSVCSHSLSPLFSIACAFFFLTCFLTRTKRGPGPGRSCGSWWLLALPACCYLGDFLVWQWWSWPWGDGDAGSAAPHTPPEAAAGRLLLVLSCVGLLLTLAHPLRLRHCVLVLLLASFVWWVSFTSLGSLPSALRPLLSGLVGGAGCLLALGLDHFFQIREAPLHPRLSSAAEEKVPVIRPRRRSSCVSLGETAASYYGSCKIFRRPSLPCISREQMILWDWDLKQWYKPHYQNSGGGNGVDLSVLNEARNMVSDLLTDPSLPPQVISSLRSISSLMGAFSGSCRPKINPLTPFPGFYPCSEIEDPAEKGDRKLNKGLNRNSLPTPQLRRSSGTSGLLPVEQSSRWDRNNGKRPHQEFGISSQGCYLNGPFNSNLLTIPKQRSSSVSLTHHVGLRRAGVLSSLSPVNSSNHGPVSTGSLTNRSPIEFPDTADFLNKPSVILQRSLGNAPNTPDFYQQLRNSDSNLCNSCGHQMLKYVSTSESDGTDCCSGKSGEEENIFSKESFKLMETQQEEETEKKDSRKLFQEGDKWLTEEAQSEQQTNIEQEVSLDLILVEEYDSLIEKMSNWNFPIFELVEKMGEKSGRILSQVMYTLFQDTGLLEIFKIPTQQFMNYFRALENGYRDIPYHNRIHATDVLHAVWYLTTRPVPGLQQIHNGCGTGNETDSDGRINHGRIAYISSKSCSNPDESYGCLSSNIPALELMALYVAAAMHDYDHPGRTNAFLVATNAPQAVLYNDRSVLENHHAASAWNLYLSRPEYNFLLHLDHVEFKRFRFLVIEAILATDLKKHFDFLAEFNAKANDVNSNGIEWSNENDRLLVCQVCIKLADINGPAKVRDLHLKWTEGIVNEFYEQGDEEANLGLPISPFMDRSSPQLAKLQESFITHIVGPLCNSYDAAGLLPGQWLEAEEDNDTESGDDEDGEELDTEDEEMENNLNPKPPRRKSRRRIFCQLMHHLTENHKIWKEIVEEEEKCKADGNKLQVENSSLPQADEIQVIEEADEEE
Sequence of PDE10 (Q9Y233 whole entry): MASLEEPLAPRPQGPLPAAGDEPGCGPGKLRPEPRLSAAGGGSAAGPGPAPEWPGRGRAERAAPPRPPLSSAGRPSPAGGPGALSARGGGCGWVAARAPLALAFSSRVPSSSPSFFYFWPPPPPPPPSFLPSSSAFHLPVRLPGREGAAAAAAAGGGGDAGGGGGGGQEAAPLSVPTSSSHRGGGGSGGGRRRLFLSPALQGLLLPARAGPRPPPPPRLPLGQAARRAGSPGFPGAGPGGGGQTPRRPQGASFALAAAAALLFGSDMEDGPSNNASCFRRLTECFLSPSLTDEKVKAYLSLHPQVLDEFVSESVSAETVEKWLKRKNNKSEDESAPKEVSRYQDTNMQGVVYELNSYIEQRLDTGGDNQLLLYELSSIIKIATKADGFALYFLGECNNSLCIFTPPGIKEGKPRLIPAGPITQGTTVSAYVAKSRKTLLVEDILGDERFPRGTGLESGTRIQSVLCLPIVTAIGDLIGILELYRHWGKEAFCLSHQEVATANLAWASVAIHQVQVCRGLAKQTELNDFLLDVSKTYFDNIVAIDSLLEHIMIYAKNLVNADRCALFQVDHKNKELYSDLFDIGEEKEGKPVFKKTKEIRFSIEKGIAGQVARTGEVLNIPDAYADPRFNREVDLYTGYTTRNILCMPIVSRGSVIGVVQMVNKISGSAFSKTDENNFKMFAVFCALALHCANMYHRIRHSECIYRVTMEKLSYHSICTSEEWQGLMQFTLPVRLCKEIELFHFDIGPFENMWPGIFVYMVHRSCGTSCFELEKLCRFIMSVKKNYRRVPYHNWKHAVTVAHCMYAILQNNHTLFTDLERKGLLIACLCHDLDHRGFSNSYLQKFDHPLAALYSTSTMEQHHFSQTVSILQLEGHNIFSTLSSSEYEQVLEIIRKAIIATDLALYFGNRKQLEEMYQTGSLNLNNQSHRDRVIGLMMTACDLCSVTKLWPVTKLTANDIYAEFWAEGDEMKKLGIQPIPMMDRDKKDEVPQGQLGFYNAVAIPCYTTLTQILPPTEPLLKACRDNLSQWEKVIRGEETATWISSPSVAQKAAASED
Sequence of PDE3A (Q14432 whole entry, species assumed): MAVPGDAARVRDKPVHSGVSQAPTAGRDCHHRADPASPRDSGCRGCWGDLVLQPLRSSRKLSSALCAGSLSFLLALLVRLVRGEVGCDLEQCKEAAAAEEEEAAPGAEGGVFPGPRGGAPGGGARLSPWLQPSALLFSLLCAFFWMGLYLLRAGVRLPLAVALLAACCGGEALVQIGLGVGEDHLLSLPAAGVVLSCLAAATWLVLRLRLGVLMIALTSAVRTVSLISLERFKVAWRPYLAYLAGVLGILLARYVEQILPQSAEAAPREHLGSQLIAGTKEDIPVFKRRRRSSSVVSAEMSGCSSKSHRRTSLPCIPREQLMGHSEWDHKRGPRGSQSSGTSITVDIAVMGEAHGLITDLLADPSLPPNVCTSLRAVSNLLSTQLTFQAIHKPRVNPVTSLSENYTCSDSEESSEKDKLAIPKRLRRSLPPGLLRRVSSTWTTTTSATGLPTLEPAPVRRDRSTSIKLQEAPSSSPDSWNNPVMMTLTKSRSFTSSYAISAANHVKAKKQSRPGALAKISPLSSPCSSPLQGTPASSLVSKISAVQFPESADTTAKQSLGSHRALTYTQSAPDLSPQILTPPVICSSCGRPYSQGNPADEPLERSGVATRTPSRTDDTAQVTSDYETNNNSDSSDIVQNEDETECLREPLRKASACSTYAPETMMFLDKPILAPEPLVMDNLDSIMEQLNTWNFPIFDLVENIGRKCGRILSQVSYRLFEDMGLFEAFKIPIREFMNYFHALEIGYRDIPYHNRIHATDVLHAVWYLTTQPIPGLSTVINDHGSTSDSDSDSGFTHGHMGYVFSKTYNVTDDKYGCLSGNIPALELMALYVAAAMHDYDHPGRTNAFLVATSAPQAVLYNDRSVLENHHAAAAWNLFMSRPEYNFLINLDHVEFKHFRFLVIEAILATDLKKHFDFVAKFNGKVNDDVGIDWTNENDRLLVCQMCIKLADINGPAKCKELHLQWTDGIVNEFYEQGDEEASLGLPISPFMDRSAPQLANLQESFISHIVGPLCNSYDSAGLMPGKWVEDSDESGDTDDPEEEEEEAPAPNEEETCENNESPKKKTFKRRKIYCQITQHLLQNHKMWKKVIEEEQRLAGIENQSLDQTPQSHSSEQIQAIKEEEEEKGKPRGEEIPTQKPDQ
Sequence of PDE11 (Q9HCR9 whole entry): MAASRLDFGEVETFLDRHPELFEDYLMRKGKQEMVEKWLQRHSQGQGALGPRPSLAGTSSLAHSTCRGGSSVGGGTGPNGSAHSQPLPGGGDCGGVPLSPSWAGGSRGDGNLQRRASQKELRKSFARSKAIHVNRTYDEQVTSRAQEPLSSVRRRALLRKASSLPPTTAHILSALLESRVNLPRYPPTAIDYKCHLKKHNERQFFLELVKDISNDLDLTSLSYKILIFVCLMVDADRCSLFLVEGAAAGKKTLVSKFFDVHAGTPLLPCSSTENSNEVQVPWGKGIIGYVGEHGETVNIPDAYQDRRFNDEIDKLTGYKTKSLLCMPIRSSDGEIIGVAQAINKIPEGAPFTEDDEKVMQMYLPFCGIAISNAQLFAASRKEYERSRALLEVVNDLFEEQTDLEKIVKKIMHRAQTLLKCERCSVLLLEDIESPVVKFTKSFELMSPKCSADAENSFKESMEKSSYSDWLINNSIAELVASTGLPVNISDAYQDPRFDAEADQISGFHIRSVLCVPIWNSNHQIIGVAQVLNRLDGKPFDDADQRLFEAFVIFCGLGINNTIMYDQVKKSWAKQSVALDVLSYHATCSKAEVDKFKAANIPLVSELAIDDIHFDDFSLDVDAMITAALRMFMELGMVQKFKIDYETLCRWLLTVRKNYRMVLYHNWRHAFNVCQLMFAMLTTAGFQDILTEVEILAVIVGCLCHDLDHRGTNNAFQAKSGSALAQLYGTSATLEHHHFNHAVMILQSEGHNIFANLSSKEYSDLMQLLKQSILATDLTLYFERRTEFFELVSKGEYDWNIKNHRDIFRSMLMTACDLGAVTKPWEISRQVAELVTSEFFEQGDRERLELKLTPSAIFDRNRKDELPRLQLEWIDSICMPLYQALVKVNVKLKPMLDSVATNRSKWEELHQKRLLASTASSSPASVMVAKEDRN
Sequence of PDE1A (P54750 whole entry, species assumed): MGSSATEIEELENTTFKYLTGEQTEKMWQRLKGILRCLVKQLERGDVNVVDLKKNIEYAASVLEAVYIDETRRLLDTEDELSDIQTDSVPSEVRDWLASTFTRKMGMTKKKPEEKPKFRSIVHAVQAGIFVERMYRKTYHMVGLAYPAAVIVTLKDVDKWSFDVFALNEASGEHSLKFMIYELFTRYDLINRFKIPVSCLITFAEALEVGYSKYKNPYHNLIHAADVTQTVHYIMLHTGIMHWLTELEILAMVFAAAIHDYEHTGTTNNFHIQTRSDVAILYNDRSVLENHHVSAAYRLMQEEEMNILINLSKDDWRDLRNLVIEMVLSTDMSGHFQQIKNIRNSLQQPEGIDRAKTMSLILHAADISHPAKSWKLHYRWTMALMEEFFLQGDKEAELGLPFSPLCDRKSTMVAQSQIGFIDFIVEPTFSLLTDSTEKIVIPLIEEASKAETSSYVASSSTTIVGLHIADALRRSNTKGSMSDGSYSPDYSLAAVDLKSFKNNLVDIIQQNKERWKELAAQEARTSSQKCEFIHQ

CC(C)(C)C1=NN(c2ccc(C(=O)O)cc2)C(c2ccc(Cl)cc2Cl)C1 (centres unmarked) [Compound 12, 4-(3-(tert-Butyl)-5-(2,4-dichlorophenyl)-4,5-dihydro-1H-pyrazol-1-yl)benzoic acid]
IC50 (COX2): > 100 µM | pIC50 (MDA-MB-231): 4.19 | pIC50 (PC-3): 4.26 | pIC50 (HCT-116): 4.41 | pIC50 (SF-268): 4.39 | pIC50 (SF-539): 4.28 | pIC50 (HOP-62): 4.43 | pIC50 (UACC-257): 4.15 | pIC50 (NCI-H322M): 4.30 | pIC50 (OVCAR-4): 4.26 | pIC50 (OVCAR-5): 4.23 | pIC50 (SNB-19): 4.28 | pIC50 (MALME-3M): 4.18 | pIC50 (SW-620): 4.29 | pIC50 (A498): 4.48 | pIC50 (TK-10): 4.13 | pIC50 (786-0): 4.33 | pIC50 (UO-31): 4.25 | IC50 (recombinant human PDE5): 3.7 µM | pIC50 (PDE9A): < 4.30 | pIC50 (PDE3B; substrate cAMP): < 4.30 | pIC50 (PDE3B; substrate cGMP): < 4.30 | pIC50 (PDE5A; PDE5A, substrate cGMP): 5.43 | selectivity for PDE5 relative to other cGMP degrading PDE isozymes (PDE5A; in words): selective inhibitor for PDE5 | pIC50 (PDE10; PDE10, substrate cAMP): < 4.30 | pIC50 (PDE10; PDE10, substrate cGMP): < 4.30 | pIC50 (PDE1A; substrate cAMP): < 4.30 | pIC50 (PDE1A; substrate cGMP): < 4.30 | pIC50 (PDE3A; substrate cAMP): < 4.30 | pIC50 (PDE3A; substrate cGMP): < 4.30 | pIC50 (PDE11; PDE11, substrate cAMP): < 4.30 | pIC50 (PDE11; PDE11, substrate cGMP): < 4.30
